Calls of active or inactive are those of the source. The calls are words filed in the database; no cut-off is given here.

Experimental findings from ChEMBL document CHEMBL4732064, “Structure-activity relationship studies of phenothiazine derivatives as a new class of ferroptosis inhibitors together with the therapeutic effect in an ischemic stroke model” (Eur J Med Chem, 2021) are described below.

Assay [1] deals with HT-1080. Nature of the assay: Antioxidant activity in erastin-induced human HT-1080 cell ferroptosis model assessed as decrease in cytosolic ROS accumulation at 0.01 to 1 uM incubated for 8 to 24 hrs by DCFH-DA staining based assay. It is filed as functional. As to conditions: dose 0.01-1 µM, time 8-24 hrs.
The test system of assay [2] is HT-1080. Nature of the assay: Inhibition of erastin-induced ferroptosis in human HT-1080 cells assessed as cell viability incubated for 48 hrs by MTT assay. It is filed as functional, cell-based. The conditions noted are these: HT-1080, 48 h.
The target in assay [3] is Bifunctional arginine demethylase and lysyl-hydroxylase JMJD6 (Homo sapiens, UniProt Q6NYC1). Nature of the assay: Inhibition of JMJD6 (unknown origin).
The test system of assay [4] is Calu-1. Nature of the assay: Inhibition of erastin-induced ferroptosis in human Calu-1 cells assessed as cell viability incubated for 48 hrs by MTT assay. It is filed as functional, cell-based. The conditions noted are these: Calu-1, 48 h.
The target in assay [5] is T1, Alpha-1B adrenergic receptor (Homo sapiens) (UniProt P35368).
T1 sequence (whole entry): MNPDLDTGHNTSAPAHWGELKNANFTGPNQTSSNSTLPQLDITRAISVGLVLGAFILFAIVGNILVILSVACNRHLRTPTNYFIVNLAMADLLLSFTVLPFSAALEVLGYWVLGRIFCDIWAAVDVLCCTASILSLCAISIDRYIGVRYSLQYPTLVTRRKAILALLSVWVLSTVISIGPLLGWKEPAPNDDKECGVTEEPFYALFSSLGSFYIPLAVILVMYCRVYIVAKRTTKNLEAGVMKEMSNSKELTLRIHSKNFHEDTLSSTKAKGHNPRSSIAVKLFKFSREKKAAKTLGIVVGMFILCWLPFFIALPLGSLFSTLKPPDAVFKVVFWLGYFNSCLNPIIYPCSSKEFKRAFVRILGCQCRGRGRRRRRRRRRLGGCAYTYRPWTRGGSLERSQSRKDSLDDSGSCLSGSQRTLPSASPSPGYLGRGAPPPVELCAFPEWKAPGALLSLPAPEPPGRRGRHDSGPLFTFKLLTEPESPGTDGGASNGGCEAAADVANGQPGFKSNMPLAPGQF
Put plainly: Antagonist activity at ADRA1B (unknown origin) by FLIPR assay.

Assay [6] deals with 5-hydroxytryptamine receptor 2A (Homo sapiens) (UniProt P28223). Nature of the assay: Antagonist activity at HTR2A (unknown origin) by FLIPR assay.
Chain of 5-hydroxytryptamine receptor 2A (Homo sapiens) (P28223 whole entry, the tested form may be a part): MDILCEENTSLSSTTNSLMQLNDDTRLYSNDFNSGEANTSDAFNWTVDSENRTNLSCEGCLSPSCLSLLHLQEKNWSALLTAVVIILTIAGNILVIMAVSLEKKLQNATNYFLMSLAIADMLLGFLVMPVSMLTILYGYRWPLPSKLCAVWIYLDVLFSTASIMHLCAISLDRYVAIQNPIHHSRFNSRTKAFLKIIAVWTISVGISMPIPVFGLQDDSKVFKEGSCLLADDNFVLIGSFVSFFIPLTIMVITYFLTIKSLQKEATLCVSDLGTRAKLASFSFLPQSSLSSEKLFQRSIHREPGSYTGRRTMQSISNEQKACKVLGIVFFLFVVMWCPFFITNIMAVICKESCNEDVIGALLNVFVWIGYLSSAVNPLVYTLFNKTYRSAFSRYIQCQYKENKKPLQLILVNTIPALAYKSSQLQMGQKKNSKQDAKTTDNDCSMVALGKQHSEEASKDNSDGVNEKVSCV
Assay [7] relates to Rattus norvegicus. Put plainly: Protective activity in Sprague-Dawley rat model of middle cerebral artery occlusion-induced ischemia-reperfusion injury assessed as reduction in neurological score at 5 mg/kg, iv measured after 24 hrs of post reperfusion […]. It counts as functional, organism-based.
For assay [8], the system named is Rattus norvegicus. Put plainly: Protective activity in Sprague-Dawley rat model of middle cerebral artery occlusion-induced ischemia-reperfusion injury assessed as decrease in cerebral infarction volume at 5 mg/kg, iv measured after 24 hrs of post reperfusion by TTC staining based assay. It is filed as functional, organism-based.
Assay [9] relates to HT-1080. Nature of the assay: Inhibition of ERK expression in erastin-induced human HT-1080 cell ferroptosis model at 0.01 to 1 uM after 10 hrs by Western blot analysis. It is filed as functional. The conditions noted are these: dose 0.01-1 µM.
For the next assay, the system named is BXPC-3. Nature of the assay: Inhibition of erastin-induced ferroptosis in human BXPC-3 cells assessed as cell viability incubated for 48 hrs by MTT assay. It is filed as functional, cell-based. As to conditions: BXPC-3, 48 h.
In assay [10] the target is Muscarinic acetylcholine receptor M3 (Homo sapiens) (UniProt P20309). Nature of the assay: Antagonist activity at CHRM3 (unknown origin) by FLIPR assay.
Chain of Muscarinic acetylcholine receptor M3 (Homo sapiens) (P20309 whole entry, looked up): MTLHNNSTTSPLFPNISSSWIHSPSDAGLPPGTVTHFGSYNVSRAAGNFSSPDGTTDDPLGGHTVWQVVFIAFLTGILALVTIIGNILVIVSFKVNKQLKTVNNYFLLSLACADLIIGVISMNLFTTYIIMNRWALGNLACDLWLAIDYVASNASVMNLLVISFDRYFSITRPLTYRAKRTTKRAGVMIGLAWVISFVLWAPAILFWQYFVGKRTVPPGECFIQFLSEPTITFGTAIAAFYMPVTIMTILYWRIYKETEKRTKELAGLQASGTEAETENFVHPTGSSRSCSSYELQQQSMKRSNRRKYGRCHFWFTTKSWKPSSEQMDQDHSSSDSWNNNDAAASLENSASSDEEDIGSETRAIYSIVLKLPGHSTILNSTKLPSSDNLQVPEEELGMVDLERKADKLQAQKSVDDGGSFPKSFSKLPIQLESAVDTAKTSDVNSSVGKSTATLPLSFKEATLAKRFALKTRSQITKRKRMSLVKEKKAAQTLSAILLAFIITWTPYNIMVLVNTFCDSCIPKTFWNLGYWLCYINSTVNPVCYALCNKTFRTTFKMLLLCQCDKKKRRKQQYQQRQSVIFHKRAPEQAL
Assay [11] has as its system HT-1080. Nature of the assay: Inhibition of staurosporine-induced apoptotic cell death in human HT-1080 cells assessed as cell viability at 10 uM. It is filed as functional, cell-based.
Assay [12] relates to HT-1080. Nature of the assay: Downregulation of GPX4 expression in erastin-induced human HT-1080 cell ferroptosis model at 1 uM after 10 hrs by Western blot analysis. It counts as functional.
The next assay relates to THP-1. Nature of the assay: Protection against nigericin-induced pyroptosis in human THP-1 cells assessed as cell viability at 10 uM. It counts as functional, cell-based.
Assay [13] has as its target T2, Alpha-1A adrenergic receptor (Homo sapiens) (UniProt P35348).
T2 sequence (whole entry): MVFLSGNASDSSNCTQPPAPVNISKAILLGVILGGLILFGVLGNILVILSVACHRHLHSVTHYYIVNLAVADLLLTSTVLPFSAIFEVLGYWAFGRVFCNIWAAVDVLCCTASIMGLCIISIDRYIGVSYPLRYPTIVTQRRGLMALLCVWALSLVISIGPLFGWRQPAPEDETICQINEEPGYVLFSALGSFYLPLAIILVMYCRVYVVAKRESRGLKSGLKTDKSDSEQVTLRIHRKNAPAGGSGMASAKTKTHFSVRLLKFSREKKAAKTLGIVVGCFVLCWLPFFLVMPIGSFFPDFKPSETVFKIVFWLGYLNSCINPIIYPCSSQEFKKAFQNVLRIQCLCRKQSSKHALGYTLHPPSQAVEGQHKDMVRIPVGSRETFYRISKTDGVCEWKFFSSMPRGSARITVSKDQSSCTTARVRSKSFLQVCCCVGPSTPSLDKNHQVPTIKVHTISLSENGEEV
Put plainly: Antagonist activity at ADRA1A (unknown origin) by FLIPR assay.

In assay [14] the test system is HT-1080. Nature of the assay: Reduction in lipid oxidation level in erastin-induced human HT-1080 cell ferroptosis model assessed as decrease in MDA accumulation at 0.01 to 1 uM. It is filed as functional. As to conditions: dose 0.01-1 µM.
Assay [15] has as its system Rattus norvegicus. Nature of the assay: Protective activity in Sprague-Dawley rat model of middle cerebral artery occlusion-induced ischemia-reperfusion injury assessed as restoration of walking ability at 5 mg/kg, iv measured after 24 hrs of post reperfusion […]. It is filed as functional, organism-based.
Assay [16] concerns Rattus norvegicus. Put plainly: Protective activity in Sprague-Dawley rat model of middle cerebral artery occlusion-induced ischemia-reperfusion injury assessed as reduction in MDA level at 5 mg/kg, iv measured after 24 hrs of post reperfusion […]. It counts as functional, organism-based.
For the next assay, the system named is MDA-MB-231. Put plainly: Inhibition of erastin-induced ferroptosis in human MDA-MB-231 cells assessed as cell viability incubated for 48 hrs by MTT assay. It is filed as functional, cell-based. The conditions noted are these: MDA-MB-231, 48 h.
The target of assay [17] is Indoleamine 2,3-dioxygenase 1 (Homo sapiens, UniProt P14902). Nature of the assay: Inhibition of IDO1 (unknown origin).
Chain of Indoleamine 2,3-dioxygenase 1 (P14902 whole entry): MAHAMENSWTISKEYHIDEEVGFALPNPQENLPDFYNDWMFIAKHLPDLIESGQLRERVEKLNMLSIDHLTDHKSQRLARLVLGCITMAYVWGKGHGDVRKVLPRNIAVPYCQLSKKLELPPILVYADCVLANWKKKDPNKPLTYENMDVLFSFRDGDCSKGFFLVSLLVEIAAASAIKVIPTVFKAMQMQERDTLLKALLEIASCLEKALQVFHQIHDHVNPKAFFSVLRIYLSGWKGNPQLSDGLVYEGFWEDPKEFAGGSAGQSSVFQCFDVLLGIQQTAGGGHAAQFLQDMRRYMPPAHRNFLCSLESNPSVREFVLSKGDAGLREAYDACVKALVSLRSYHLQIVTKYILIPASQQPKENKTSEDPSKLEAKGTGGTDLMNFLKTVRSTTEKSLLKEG
For assay [18], the system named is Calu-1. Put plainly: Antioxidant activity in erastin-induced human Calu-1 cell ferroptosis model assessed as decrease in lipid ROS accumulation at 0.01 to 1 uM incubated for 8 to 24 hrs by BODIPY 581/591 C11 staining based flow cytometric analysis. It counts as functional. The conditions noted are these: dose 0.01-1 µM, time 8-24 hrs.
Assay [19] concerns HT-1080. Put plainly: Downregulation of GPX4 expression in erastin-induced human HT-1080 cell ferroptosis model at 0.01 to 1 uM after 10 hrs by Western blot analysis. It is filed as functional. As to conditions: dose 0.01-1 µM.
The nature of assay [20]: Antioxidant activity assessed as DPPH radical scavenging activity at 0.05 mM incubated for 10 mins. It is filed as functional.

In the case of `CC(c1ccc(N2CCN(C)CC2)cc1)c1ccc2c(c1)Nc1ccccc1S2` (stereo not drawn), the result in the assay with HT-1080 [1], in the assay on Rattus norvegicus [7], with Rattus norvegicus [8], in the assay on HT-1080 [14], with Rattus norvegicus [15] and with Rattus norvegicus [16] was Active. For the same compound, the outcome (with Calu-1 [18]; in assay [20]) was Active. Also, the EC50 came out at 0.5 nM in the assay on HT-1080 [2], 1.88 nM in the assay on Calu-1 [4], 2.92 nM in the assay with BXPC-3 and 0.424 nM with MDA-MB-231. Also, the IC50 in assay [3] and in assay [17] was over 10000 nM in each case. For the same compound, the result (in assay [5]; in [6]; in assay [10]; with HT-1080 [11]; in the assay on HT-1080 [12]; with THP-1) was inactive. Further, the result (in assay [13]; in the assay with HT-1080 [19]) was inactive. Besides, the inhibition result in the assay on HT-1080 [9] is “inactive”.
